{"source": "patent US6914045B2", "about": "“Glycopeptide antibiotics” (Wyeth Holdings Corporation, priority 2001, dated 2005)", "key": {"Enterococcus sp.": {"tested_on": "Enterococcus sp.", "test": "in vitro antibacterial evaluation, MIC by broth dilution", "type": "cell-based", "settings": "broth dilution, 18 hours at 35° C.", "summary_of_the_method": "(§1)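 Read-out: the lowest concentration at which the test strain fails to grow. Serial dilutions (64-0.06 μg/mL) in Muller-Hinton II […], 5×10^5 CFU/mL inoculum, NCCLS M7-A2 procedure.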"}, "Escherichia coli": {"tested_on": "Escherichia coli", "test": "in vitro antibacterial evaluation, MIC by broth dilution", "type": "cell-based", "settings": "18 hours at 35° C.", "summary_of_the_method": "as §1"}, "Staphylococcus sp.": {"tested_on": "Staphylococcus sp.", "test": "in vitro antibacterial evaluation, MIC by broth dilution", "type": "cell-based", "settings": "broth dilution, 18 hours at 35° C.", "summary_of_the_method": "as §1"}, "Streptococcus sp.": {"tested_on": "Streptococcus sp.", "test": "in vitro antibacterial evaluation, MIC by broth dilution", "type": "cell-based", "settings": "broth dilution, 18 hours at 35° C.", "summary_of_the_method": "as §1"}, "[1]": {"tested_on": "Staphylococcus aureus-SMITH (GC 4543)", "test": "acute lethal infection in mice", "type": "in vivo", "settings": "acute lethal infection, female CD-1 mice, intraperitoneal challenge, intravenous 30 min. after infection, 7 day survival", "summary_of_the_method": "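Protocol: bacteria suspended in trypticase soy broth or hog gastric mucin injected ip into female CD-1 mice at a level killing untreated controls in 24-48 hr; compound given iv in saline or 5% dextrose 30 min post-challenge; five mice per dose; ED50 derived from pooled 7 day survival of three runs.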"}}}
{"smiles": "COc1ccc(CC2OCC3OC(OC4C(CO)OC(Oc5ccc(CC6NC(=O)C(C(C)c7ccccc7)NC(=O)CNC(=O)C(CO)NC(=O)C(C(O)C7CNC(=N)N7C7OC(CO)C(O)C(O)C7O)NC(=O)C(C(O)C7CNC(=N)N7)NC6=O)cc5)C(O)C4O)C(O)C(O)C3O2)cc1", "note": "(stereo not drawn) [Example 103, Cyco[glycyl-β-methylphenylalanyl-O-[4-O-[4,6-O-(4-methoxyphenethylidene)hexopyranosyl]-hexopyranosyl]tyrosyl-3-(2-iminoimidazolidin-4-yl)seryl-3-(3-hexopyranosyl-2-iminoimidazolidin-4-yl)serylseryl]]", "values": [{"measurement": "MIC Enterococcus avium (GC 4558)", "setting": "Enterococcus sp.; Enterococcus avium (GC 4558)", "value": 8, "unit": "mg/L"}, {"measurement": "MIC Enterococcus faecalis (ATCC 29212)", "setting": "Enterococcus sp.; Enterococcus faecalis (ATCC 29212)", "value": 4, "unit": "mg/L"}, {"measurement": "MIC Enterococcus faecalis (GC 2242)", "setting": "Enterococcus sp.; Enterococcus faecalis (GC 2242)", "value": 4, "unit": "mg/L"}, {"measurement": "MIC Enterococcus faecalis (GC 2691)", "setting": "Enterococcus sp.; Enterococcus faecalis (GC 2691)", "value": 8, "unit": "mg/L"}, {"measurement": "MIC Enterococcus faecalis (GC 3059)", "setting": "Enterococcus sp.; Enterococcus faecalis (GC 3059)", "value": 8, "unit": "mg/L"}, {"measurement": "MIC Enterococcus faecalis (GC 4552)", "setting": "Enterococcus sp.; Enterococcus faecalis (GC 4552)", "value": 8, "unit": "mg/L"}, {"measurement": "MIC Enterococcus faecalis (GC 4553)", "setting": "Enterococcus sp.; Enterococcus faecalis (GC 4553)", "value": 8, "unit": "mg/L"}, {"measurement": "MIC Enterococcus faecalis (GC 4554)", "setting": "Enterococcus sp.; Enterococcus faecalis (GC 4554)", "value": 8, "unit": "mg/L"}, {"measurement": "MIC Enterococcus faecalis (GC 6189)", "setting": "Enterococcus sp.; Enterococcus faecalis (GC 6189)", "value": 4, "unit": "mg/L"}, {"measurement": "MIC Enterococcus faecium (GC 2243)", "setting": "Enterococcus sp.; Enterococcus faecium (GC 2243)", "value": 4, "unit": "mg/L"}, {"measurement": "MIC Enterococcus faecium (GC 4556)", "setting": "Enterococcus sp.; Enterococcus faecium (GC 4556)", "value": 4, "unit": "mg/L"}, {"measurement": "MIC Enterococcus faecium (GC 4557)", "setting": "Enterococcus sp.; Enterococcus faecium (GC 4557)", "value": 2, "unit": "mg/L"}, {"measurement": "MIC Enterococcus faecalis (ATCC 29212)", "setting": "Enterococcus sp.; strain ATCC 29212", "value": 4, "unit": "mg/L"}, {"measurement": "MIC Enterococcus faecalis (GC 2242)", "setting": "Enterococcus sp.; strain GC 2242", "value": 4, "unit": "mg/L"}, {"measurement": "MIC Enterococcus faecium (GC 2243)", "setting": "Enterococcus sp.; strain GC 2243", "value": 4, "unit": "mg/L"}, {"measurement": "MIC Enterococcus faecalis (GC 2691)", "setting": "Enterococcus sp.; strain GC 2691", "value": 8, "unit": "mg/L"}, {"measurement": "MIC Enterococcus faecalis (GC 3059)", "setting": "Enterococcus sp.; strain GC 3059", "value": 8, "unit": "mg/L"}, {"measurement": "MIC Enterococcus faecalis (GC 4552)", "setting": "Enterococcus sp.; strain GC 4552", "value": 8, "unit": "mg/L"}, {"measurement": "MIC Enterococcus faecalis (GC 4553)", "setting": "Enterococcus sp.; strain GC 4553", "value": 8, "unit": "mg/L"}, {"measurement": "MIC Enterococcus faecalis (GC 4554)", "setting": "Enterococcus sp.; strain GC 4554", "value": 8, "unit": "mg/L"}, {"measurement": "MIC Enterococcus faecium (GC 4556)", "setting": "Enterococcus sp.; strain GC 4556", "value": 4, "unit": "mg/L"}, {"measurement": "MIC Enterococcus faecium (GC 4557)", "setting": "Enterococcus sp.; strain GC 4557", "value": 2, "unit": "mg/L"}, {"measurement": "MIC Enterococcus avium (GC 4558)", "setting": "Enterococcus sp.; strain GC 4558", "value": 8, "unit": "mg/L"}, {"measurement": "MIC Enterococcus faecalis (GC 6189)", "setting": "Enterococcus sp.; strain GC 6189", "value": 4, "unit": "mg/L"}, {"measurement": "MIC Escherichia coli (ATCC 25922)", "setting": "Escherichia coli; strain ATCC 25922", "value": 64, "unit": "mg/L"}, {"measurement": "MIC Escherichia coli (GC 4559)", "setting": "Escherichia coli; strain GC 4559", "value": 64, "unit": "mg/L"}, {"measurement": "MIC Escherichia coli (GC 4560)", "setting": "Escherichia coli; strain GC 4560", "value": 1, "unit": "mg/L"}, {"measurement": "MIC Coagulase Negative Staphylococcus (GC 4547)", "setting": "Staphylococcus sp.", "value": 2, "unit": "mg/L"}, {"measurement": "MIC Coagulase Negative Staphylococcus (GC 4548)", "setting": "Staphylococcus sp.", "value": 1, "unit": "mg/L"}, {"measurement": "MIC Coagulase Negative Staphylococcus (GC 4549)", "setting": "Staphylococcus sp.", "value": 1, "unit": "mg/L"}, {"measurement": "MIC Coagulase Negative Staphylococcus (GC 4551)", "setting": "Staphylococcus sp.", "value": 2, "unit": "mg/L"}, {"measurement": "MIC Coagulase Negative Staphylococcus (GC 6257)", "setting": "Staphylococcus sp.", "value": 1, "unit": "mg/L"}, {"measurement": "MIC Staphylococcus aureus (ATCC 29213)", "setting": "Staphylococcus sp.", "value": 2, "unit": "mg/L"}, {"measurement": "MIC Staphylococcus aureus (GC 1131)", "setting": "Staphylococcus sp.", "value": 2, "unit": "mg/L"}, {"measurement": "MIC Staphylococcus aureus (GC 3051)", "setting": "Staphylococcus sp.", "value": 1, "unit": "mg/L"}, {"measurement": "MIC Staphylococcus aureus (GC 3053)", "setting": "Staphylococcus sp.", "value": 2, "unit": "mg/L"}, {"measurement": "MIC Staphylococcus aureus (GC 4541)", "setting": "Staphylococcus sp.", "value": 2, "unit": "mg/L"}, {"measurement": "MIC Staphylococcus aureus (GC 4542)", "setting": "Staphylococcus sp.", "value": 2, "unit": "mg/L"}, {"measurement": "MIC Staphylococcus aureus (GC 4544)", "setting": "Staphylococcus sp.", "value": 2, "unit": "mg/L"}, {"measurement": "MIC Staphylococcus aureus (GC 4545)", "setting": "Staphylococcus sp.", "value": 1, "unit": "mg/L"}, {"measurement": "MIC Staphylococcus aureus-SMITH (GC 4543)", "setting": "Staphylococcus sp.", "value": 1, "unit": "mg/L"}, {"measurement": "MIC Staphylococcus haemolyticus (GC 4546)", "setting": "Staphylococcus sp.", "value": 1, "unit": "mg/L"}, {"measurement": "MIC Staphylococcus haemolyticus (GC 4546)", "setting": "Staphylococcus sp.; strain GC 4546", "value": 1, "unit": "mg/L"}, {"measurement": "MIC Coagulase Negative Staphylococcus (GC 4547)", "setting": "Staphylococcus sp.; strain GC 4547", "value": 2, "unit": "mg/L"}, {"measurement": "MIC Coagulase Negative Staphylococcus (GC 4548)", "setting": "Staphylococcus sp.; strain GC 4548", "value": 1, "unit": "mg/L"}, {"measurement": "MIC Coagulase Negative Staphylococcus (GC 4549)", "setting": "Staphylococcus sp.; strain GC 4549", "value": 1, "unit": "mg/L"}, {"measurement": "MIC Coagulase Negative Staphylococcus (GC 4551)", "setting": "Staphylococcus sp.; strain GC 4551", "value": 2, "unit": "mg/L"}, {"measurement": "MIC Coagulase Negative Staphylococcus (GC 6257)", "setting": "Staphylococcus sp.; strain GC 6257", "value": 1, "unit": "mg/L"}, {"measurement": "MIC Staphylococcus aureus-SMITH (GC 4543)", "setting": "Staphylococcus sp.; strain SMITH GC 4543", "value": 1, "unit": "mg/L"}, {"measurement": "MIC Staphylococcus aureus (ATCC 29213)", "setting": "Staphylococcus sp.; strain ATCC 29213", "value": 2, "unit": "mg/L"}, {"measurement": "MIC Staphylococcus aureus (GC 1131)", "setting": "Staphylococcus sp.; strain GC 1131", "value": 2, "unit": "mg/L"}, {"measurement": "MIC Staphylococcus aureus (GC 3051)", "setting": "Staphylococcus sp.; strain GC 3051", "value": 1, "unit": "mg/L"}, {"measurement": "MIC Staphylococcus aureus (GC 3053)", "setting": "Staphylococcus sp.; strain GC 3053", "value": 2, "unit": "mg/L"}, {"measurement": "MIC Staphylococcus aureus (GC 4541)", "setting": "Staphylococcus sp.; strain GC 4541", "value": 2, "unit": "mg/L"}, {"measurement": "MIC Staphylococcus aureus (GC 4542)", "setting": "Staphylococcus sp.; strain GC 4542", "value": 2, "unit": "mg/L"}, {"measurement": "MIC Staphylococcus aureus (GC 4544)", "setting": "Staphylococcus sp.; strain GC 4544", "value": 2, "unit": "mg/L"}, {"measurement": "MIC Staphylococcus aureus (GC 4545)", "setting": "Staphylococcus sp.; strain GC 4545", "value": 1, "unit": "mg/L"}, {"measurement": "MIC Streptococcus agalactiae (GC 4564)", "setting": "Streptococcus sp.; Streptococcus agalactiae (GC 4564)", "value": 0.5, "unit": "mg/L"}, {"measurement": "MIC Streptococcus pneumoniae (ATCC 6301)", "setting": "Streptococcus sp.; Streptococcus pneumoniae (ATCC 6301)", "value": 0.12, "unit": "mg/L"}, {"measurement": "MIC Streptococcus pneumoniae (GC 1894)", "setting": "Streptococcus sp.; Streptococcus pneumoniae (GC 1894)", "value": 0.12, "unit": "mg/L"}, {"measurement": "MIC Streptococcus pneumoniae (GC 4565)", "setting": "Streptococcus sp.; Streptococcus pneumoniae (GC 4565)", "value": 0.12, "unit": "mg/L"}, {"measurement": "MIC Streptococcus pyogenes (GC 4563)", "setting": "Streptococcus sp.; Streptococcus pyogenes (GC 4563)", "value": 0.25, "unit": "mg/L"}, {"measurement": "MIC Streptococcus pneumoniae (ATCC 6301)", "setting": "Streptococcus sp.; strain ATCC 6301", "value": 0.12, "unit": "mg/L"}, {"measurement": "MIC Streptococcus pneumoniae (GC 1894)", "setting": "Streptococcus sp.; strain GC 1894", "value": 0.12, "unit": "mg/L"}, {"measurement": "MIC Streptococcus pyogenes (GC 4563)", "setting": "Streptococcus sp.; strain GC 4563", "value": 0.25, "unit": "mg/L"}, {"measurement": "MIC Streptococcus agalactiae (GC 4564)", "setting": "Streptococcus sp.; strain GC 4564", "value": 0.5, "unit": "mg/L"}, {"measurement": "MIC Streptococcus pneumoniae (GC 4565)", "setting": "Streptococcus sp.; strain GC 4565", "value": 0.12, "unit": "mg/L"}, {"measurement": "median effective dose (ED50), Staphylococcus aureus-SMITH (GC 4543)", "setting": "[1]", "value": 0.28, "unit": "mg/kg"}]}
